Measurements from ChEMBL document CHEMBL5727720, “Bruton's tyrosine kinase inhibitors” (2020).

Biological target: Tyrosine-protein kinase BTK (Homo sapiens, UniProt Q06187)
Assay: Kinase Assay: Measurements were performed in a reaction volume of 15 μL using 384-well assay plates. Kinase enzyme, inhibitor, ATP and 1 μM peptide substrate were incubated in a reaction buffer compose of Hepes 50 mM (pH7.0), NaN3 0.02%, BSA 0.01%, Orthocanadate 0.1 mM. After one hour, the kinase reaction was quenched by the addition of […] antibody and XL-665 in 1×Detection buffer containing 60 mM EDTA (Cisbio), and the mixture was allowed to incubate for one hour. The HTRF signal was measured on a multimode plate reader (EnVision® Multilabel Reader, Perkin Elmer) with an excitation wavelength (λEx) of 330 nm and detection wavelengths (λEm) of 615 and 665 nm. Activity was determined by the ratio of the fluorescence at 665 nm to that at 615 nm. For each compound, enzyme activity as measured at various concentrations of compound, Negative control reactions were performed in the absence of inhibitor in two replicates and eight no enzyme controls.

Chain of Tyrosine-protein kinase BTK (Q06187 whole entry): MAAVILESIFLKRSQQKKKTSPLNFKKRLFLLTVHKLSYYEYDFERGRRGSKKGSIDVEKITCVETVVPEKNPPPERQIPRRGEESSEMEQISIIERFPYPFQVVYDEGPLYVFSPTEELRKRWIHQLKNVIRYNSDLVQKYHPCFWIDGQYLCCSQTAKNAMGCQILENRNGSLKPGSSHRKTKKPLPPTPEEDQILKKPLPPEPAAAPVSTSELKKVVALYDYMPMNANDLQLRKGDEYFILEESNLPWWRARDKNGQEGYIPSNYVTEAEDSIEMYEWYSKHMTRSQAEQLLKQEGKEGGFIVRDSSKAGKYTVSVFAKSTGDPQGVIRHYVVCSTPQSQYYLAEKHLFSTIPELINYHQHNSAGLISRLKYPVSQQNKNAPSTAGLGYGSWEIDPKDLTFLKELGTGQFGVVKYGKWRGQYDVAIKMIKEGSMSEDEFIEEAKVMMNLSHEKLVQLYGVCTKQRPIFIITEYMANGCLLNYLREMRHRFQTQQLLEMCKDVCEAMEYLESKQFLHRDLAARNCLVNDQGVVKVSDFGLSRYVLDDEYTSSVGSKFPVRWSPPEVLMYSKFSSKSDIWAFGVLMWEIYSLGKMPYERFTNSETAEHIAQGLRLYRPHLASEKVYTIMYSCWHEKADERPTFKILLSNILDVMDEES

Structure (SMILES) | IC50 [nM]
C=CC(=O)N1CCC[C@@H](n2nc(-c3ccc(Oc4cccc(OC)c4Cl)cc3)c3cncc(OC)c32)C1 | < 10
C=CC(=O)N1CCC[C@@H](n2nc(-c3ccc(Oc4cccc(OC)c4Cl)cc3)c3cncc(OC4CCOC4)c32)C1 (some centres not stated) | < 10
C=CC(=O)N1CCC[C@@H](n2nc(-c3ccc(Oc4cccc(OC)c4Cl)cc3)c3cncc(OC(C)C)c32)C1 | < 10
C=CC(=O)N1CC[C@@H](n2nc(-c3ccc(Oc4cccc(OC)c4Cl)cc3)c3cncc(OCC)c32)C1 | < 10
C=CC(=O)N1CCC[C@@H](n2nc(-c3ccc(Oc4cccc(OC)c4Cl)cc3)c3cncc(OCCCC)c32)C1 | < 10
C=CC(=O)N1CCC[C@@H](n2nc(-c3ccc(Oc4cccc(OC)c4Cl)cc3)c3cncc(OCCC)c32)C1 | < 10
C=CC(=O)N1CCC[C@@H](n2nc(-c3ccc(Oc4cccc(OC)c4Cl)cc3)c3cncc(OCC)c32)C1 | < 10
